# Experimental data reported in patent US10920238B2, “Winter aconite fatty acid elongase and uses thereof in the production of fatty acids” (National Research Council of Canada, priority 2016, dated 2021).
# Tested on: EhELO1
# Assay: Elongation efficiency on fatty acid substrates by EhELO1 expressed in Saccharomyces cerevisiae (in vivo activity assay)
# Type: cell-based, Eranthis hyemalis
# Settings: yeast INVSc1 transformant with EhELO1/pHVX2; 0.25 mM free fatty acid substrate with tergitol, 20° C. for 2 days; calculated from peak area of FAMEs; means of four replicates with standard deviation
# Procedure: To define the diverse activity of the discovered elongase (EhELO1) from winter aconite, a variety of possible common fatty acids and unusual fatty acids that differ in the number and position of double bonds as well as in the chain length was exogenously supplied to the yeast transformant expressing the elongase EhELO1 for in vivo activity assays. The conversion of substrates to products was measured and used for the comparison of elongation efficiencies among fatty acid substrates.
# The EhELO1 coding sequence was released from plasmid, EhELO1/pYES2.1 and sub-cloned into another yeast expression vector pHVX2 under the control of phosphoglycerate kinase 1 constitutive promoter, giving a plasmid EhELO1/pHVX2. The recombinant plasmid was transformed into Saccharomyces cerevisiae INVSc1. The yeast transformants with either EhELO1 or empty vector pHVX2 were grown at 30° C. for 1 day. The overnight cultures were diluted to an OD600 of 0.1 in the same medium supplemented with or without 0.25 mM of various free fatty acids in the presence of tergitol. After incubation at 20° C. for 2 days, yeast cells were harvested and washed once with tergitol and once with water. Total fatty acids in yeast transformants were converted to FAMES by an acid transmethylation process and analyzed by gas chromatography.
row,Structure (SMILES),Elongation efficiency (%)
1,CCCCCCCC/C=C\CCCCCCCC(=O)O [18:1-9],3.3 ± 0.07%
2,CCCCCC/C=C\CCCCCCCCCC(=O)O [18:1-11],49.4 ± 1.79%
3,"CCCCC/C=C\C/C=C\CCCCCCCC(=O)O [18:2-9, 12, linoleic acid]",44.6 ± 3.26%
4,"CCCCC/C=C\C/C=C\C/C=C\CCCCC(=O)O [18:3-6,9, 12, γ-linolenic acid]",28.3 ± 1.95%
5,"CC/C=C\C/C=C\C/C=C\CCCCCCCC(=O)O [18:3-9, 12, 15, linolenic acid]",54.7 ± 0.83%
6,"CC/C=C\C/C=C\C/C=C\C/C=C\CCCCC(=O)O [18:4-6,9, 12, 15]",25.0 ± 0.37%
7,CCCCCCCCC=CCCCCCCCCCC(=O)O [20:1-11],12.6 ± 0.23%
8,"CCCCC/C=C\C/C=C\CCCCCCCCCC(=O)O [20:2-11, 14, eicosadienoic acid]",48.5 ± 2.12%
9,"CCCCC/C=C\C/C=C\C/C=C\CCCCCCC(=O)O [20:3-8, 11, 14]",46.4 ± 1.44%
10,"CC/C=C\C/C=C\C/C=C\CCCCCCCCCC(=O)O [20:3-11, 14, 17]",61.8 ± 0.35%
11,"CCCCC/C=C\C/C=C\C/C=C\C/C=C\CCCC(=O)O [20:4-5,8, 11, 14, arachidonic acid]",36.2 ± 0.92%
12,"CC/C=C\C/C=C\C/C=C\C/C=C\CCCCCCC(=O)O [20:4-8, 11, 14, 17]",50.3 ± 0.53%
13,"CC/C=C\C/C=C\C/C=C\C/C=C\C/C=C\CCCC(=O)O [20:5-5,8, 11, 14, 17, eicosapentaenoic acid]",39.8 ± 0.43%
14,CCCCCCCC/C=C\CCCCCCCCCCCC(=O)O [22:1-13],0.0 ± 0.0%
15,"CCCCC/C=C\C/C=C\CCCCCCCCCCCC(=O)O [22:2-13, 16, docosadienoic acid]",3.4 ± 0.17%
16,"CC/C=C\C/C=C\C/C=C\CCCCCCCCCCCC(=O)O [22:3-13, 16, 19, docosatrienoic acid]",9.7 ± 0.13%
17,"CCCCC/C=C\C/C=C\C/C=C\C/C=C\CCCCCC(=O)O [22:4-7, 10, 13, 16]",20.5 ± 0.37%
18,"CCC=CCC=CCC=CCC=CCCCCCCCCC(=O)O [22:4-10, 13, 16, 19]",32.7 ± 0.49%
19,"CC/C=C\C/C=C\C/C=C\C/C=C\C/C=C\CCCCCC(=O)O [22:5-7, 10, 13, 16, 19]",31.9 ± 0.19%
20,"CC/C=C\C/C=C\C/C=C\C/C=C\C/C=C\C/C=C\CCC(=O)O [22:6-4,7, 10, 13, 16, 19, docosahexaenoic acid]",10.8 ± 0.52%

# Same assay, conditions: yeast transformant expressing EhELO1, comparison among supplied substrates
row,Structure (SMILES),Substrate preference of EhELO1 (in words)
1,CCCCCC/C=C\CCCCCCCCCC(=O)O [18:1-11],highly active
2,"CC/C=C\C/C=C\C/C=C\CCCCCCCCCC(=O)O [20:3-11, 14, 17]",most preferred

# Tested on: CtELO6
# Assay: Elongation of fatty acid by elongase CtELO6 studied in yeast, Saccharomyces cerevisiae
# Type: cell-based, Conidiobolus thromboides
# Settings: not given
# Excerpt: Accordingly, it is expected that the production of 20:2:11,14 by CtELO6 in plants may provide increased substrate for EhELO1, providing enhanced production of DDA in plants expressing both CtELO6 and EhELO1.
row,Structure (SMILES),elongation efficiency
1,"CCCCC/C=C\C/C=C\CCCCCCCC(=O)O [18:2-9, 12, linoleic acid]",more than 20%
